Assay results: patent US6737383B1, “Herbicidal oxadiazolidines” (priority 1999, dated 2004)

Legend:
bedstraw = experiment: Test B pre/postemergence bedstraw; format: in vivo, Galium aparine
Outline: (§1)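 Herbicidal effect was estimated by eye on a ten-point control scale after plants spent twelve to sixteen days in a greenhouse following soil or foliar treatment. Foliar sprays targeted plants at one to four leaves; all doses were formulated in a non-phytotoxic solvent with surfactant.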

blackgrass = experiment: Test B pre/postemergence blackgrass; format: in vivo, Alopecurus myosuroides
Outline: as §1

surinam grass = experiment: Test B pre/postemergence surinam grass; format: in vivo, Brachiaria decumbens
Outline: as §1

cocklebur = experiment: Test B pre/postemergence cocklebur; format: in vivo, Xanthium strumarium
Outline: as §1

corn = experiment: Test B pre/postemergence corn; format: in vivo, Zea mays
Outline: as §1

crabgrass = experiment: Test B pre/postemergence crabgrass; format: in vivo, Digitaria sanguinalis
Outline: as §1

giant foxtail = experiment: Test B pre/postemergence giant foxtail; format: in vivo, Setaria faberii
Outline: as §1

morningglory = experiment: Test B pre/postemergence morningglory; format: in vivo, Ipomoea hederacea
Outline: as §1

pigweed = experiment: Test B pre/postemergence pigweed; format: in vivo, Amaranthus retroflexus
Outline: as §1

rape = experiment: Test B pre/postemergence rape; format: in vivo, Brassica napus
Outline: as §1

soybean = experiment: Test B pre/postemergence soybean; format: in vivo, Glycine max
Outline: as §1

sugar beet = experiment: Test B pre/postemergence sugar beet; format: in vivo, Beta vulgaris
Outline: as §1

velvetleaf = experiment: Test B pre/postemergence velvetleaf; format: in vivo, Abutilon theophrasti
Outline: as §1

wheat = experiment: Test B pre/postemergence wheat; format: in vivo, Triticum aestivum
Outline: as §1

wild oat = experiment: Test B pre/postemergence wild oat; format: in vivo, Avena fatua
Outline: as §1

purple nutsedge = experiment: Test B pre/postemergence purple nutsedge; format: in vivo, Cyperus rotundus
Outline: as §1

[1] = Postemergence, Rate 62 g/ha, scale of 0 to 10, 0 is no effect, 10 is complete control
[2] = Postemergence, Rate 125 g/ha, scale 0 to 10, 0 is no effect, 10 is complete control
[3] = Preemergence, Rate 62 g/ha, scale 0 to 10 (0 no effect, 10 complete control)
[4] = Preemergence, Rate 125 g/ha, scale 0 to 10, 0 is no effect, 10 is complete control
[5] = Preemergence, Rate 500 g/ha, scale of 0 to 10 where 0 is no effect and 10 is complete control
[6] = Rate 250 g/ha, Postemergence, scale of 0 to 10 where 0 is no effect and 10 is complete control
[7] = Postemergence, Rate 500 g/ha, scale 0 to 10, 0 is no effect, 10 is complete control

## CC(C)N(C(=O)n1oc(=O)n(CCCC(F)(F)F)c1=O)c1ccc(Cl)cc1 [Compound 555]
bedstraw; [1]
  Bedstraw plant response rating: 2
bedstraw; [2]
  Bedstraw plant response rating: 9
bedstraw; [3]
  Bedstraw plant response rating: 0
bedstraw; [4]
  Bedstraw plant response rating: 0
bedstraw; Preemergence, Rate 250 g/ha
  Bedstraw plant response rating (0 to 10 scale): 0
bedstraw; [5]
  Bedstraw plant response rating: 0
bedstraw; [6]
  Plant response rating, Bedstraw: 9
blackgrass; [1]
  Blackgrass plant response rating: 0
blackgrass; [2]
  Blackgrass plant response rating: 2
blackgrass; [7]
  Plant response rating, Blackgrass: 5
blackgrass; [3]
  Blackgrass plant response rating: 0
blackgrass; [4]
  Blackgrass plant response rating: 0
blackgrass; Preemergence, Rate 250 g/ha
  Blackgrass plant response rating (0 to 10 scale): 0
blackgrass; [5]
  Blackgrass plant response rating: 8
blackgrass; [6]
  Plant response rating, Blackgrass: 2
Surinam grass; [1]
  B. signalgrass plant response rating: 0
Surinam grass; [2]
  B. signalgrass plant response rating: 0
Surinam grass; [7]
  Plant response rating, B. signalgrass: 4
Surinam grass; [3]
  B. signalgrass plant response rating: 6
Surinam grass; [5]
  B. signalgrass plant response rating: 8
Surinam grass; [6]
  Plant response rating, B. signalgrass: 0
cocklebur; [1]
  Cocklebur plant response rating: 0
cocklebur; [2]
  Cocklebur plant response rating: 0
cocklebur; [7]
  Plant response rating, Cocklebur: 3
cocklebur; [3]
  Cocklebur plant response rating: 0
cocklebur; [4]
  Cocklebur plant response rating: 0
cocklebur; Preemergence, Rate 250 g/ha
  Cocklebur plant response rating (0 to 10 scale): 2
cocklebur; [5]
  Cocklebur plant response rating: 9
cocklebur; [6]
  Plant response rating, Cocklebur: 0
corn; [1]
  Corn plant response rating: 0
corn; [2]
  Corn plant response rating: 0
corn; [7]
  Plant response rating, Corn: 0
corn; [3]
  Corn plant response rating: 0
corn; [4]
  Corn plant response rating: 0
corn; Preemergence, Rate 250 g/ha
  Corn plant response rating (0 to 10 scale): 0
corn; [5]
  Corn plant response rating: 2
corn; [6]
  Plant response rating, Corn: 0
crabgrass; [1]
  Crabgrass plant response rating: 0
crabgrass; [2]
  Crabgrass plant response rating: 0
crabgrass; [7]
  Plant response rating, Crabgrass: 10
crabgrass; [3]
  Crabgrass plant response rating: 9
crabgrass; [4]
  Crabgrass plant response rating: 9
crabgrass; Preemergence, Rate 250 g/ha
  Crabgrass plant response rating (0 to 10 scale): 10
crabgrass; [5]
  Crabgrass plant response rating: 10
crabgrass; [6]
  Plant response rating, Crabgrass: 9
Giant foxtail; [1]
  Giant foxtail plant response rating: 0
Giant foxtail; [2]
  Giant foxtail plant response rating: 0
Giant foxtail; [7]
  Plant response rating, Giant foxtail: 8
Giant foxtail; [3]
  Giant foxtail plant response rating: 9
Giant foxtail; [4]
  Giant foxtail plant response rating: 10
Giant foxtail; Preemergence, Rate 250 g/ha
  Giant foxtail plant response rating (0 to 10 scale): 10
Giant foxtail; [5]
  Giant foxtail plant response rating: 10
Giant foxtail; [6]
  Plant response rating, Giant foxtail: 8
morningglory; [1]
  Morningglory plant response rating: 1
morningglory; [2]
  Morningglory plant response rating: 2
morningglory; [7]
  Plant response rating, Morningglory: 6
morningglory; [3]
  Morningglory plant response rating: 0
morningglory; [4]
  Morningglory plant response rating: 0
morningglory; Preemergence, Rate 250 g/ha
  Morningglory plant response rating (0 to 10 scale): 0
morningglory; [5]
  Morningglory plant response rating: 0
morningglory; [6]
  Plant response rating, Morningglory: 5
pigweed; [1]
  Redroot pigweed plant response rating: 0
pigweed; [7]
  Plant response rating, Redroot pigweed: 2
pigweed; [3]
  Redroot pigweed plant response rating: 0
pigweed; [4]
  Redroot pigweed plant response rating: 0
pigweed; Preemergence, Rate 250 g/ha
  Redroot pigweed plant response rating (0 to 10 scale): 3
pigweed; [5]
  Redroot pigweed plant response rating: 7
pigweed; [6]
  Plant response rating, Redroot pigweed: 2
rape; [1]
  Rape plant response rating: 4
rape; [2]
  Rape plant response rating: 5
rape; [7]
  Plant response rating, Rape: 5
rape; [3]
  Rape plant response rating: 0
rape; [4]
  Rape plant response rating: 0
rape; Preemergence, Rate 250 g/ha
  Rape plant response rating (0 to 10 scale): 0
rape; [5]
  Rape plant response rating: 0
soybean; [1]
  Soybean plant response rating: 1
soybean; [7]
  Plant response rating, Soybean: 2
soybean; [3]
  Soybean plant response rating: 0
soybean; [4]
  Soybean plant response rating: 0
soybean; Preemergence, Rate 250 g/ha
  Soybean plant response rating (0 to 10 scale): 0
soybean; [5]
  Soybean plant response rating: 2
soybean; [6]
  Plant response rating, Soybean: 2
Sugar beet; [1]
  Sugarbeets plant response rating: 0
Sugar beet; [7]
  Plant response rating, Sugarbeets: 0
Sugar beet; [3]
  Sugarbeets plant response rating: 2
Sugar beet; [4]
  Sugarbeets plant response rating: 5
Sugar beet; [5]
  Sugarbeets plant response rating: 5
Sugar beet; [6]
  Plant response rating, Sugarbeets: 0
velvetleaf; [1]
  Velvetleaf plant response rating: 0
velvetleaf; [7]
  Plant response rating, Velvetleaf: 4
velvetleaf; [3]
  Velvetleaf plant response rating: 0
velvetleaf; [4]
  Velvetleaf plant response rating: 0
velvetleaf; Preemergence, Rate 250 g/ha
  Velvetleaf plant response rating (0 to 10 scale): 0
velvetleaf; [5]
  Velvetleaf plant response rating: 6
velvetleaf; [6]
  Plant response rating, Velvetleaf: 2
wheat; [1]
  Wheat plant response rating: 6
wheat; [7]
  Plant response rating, Wheat: 2
wheat; [3]
  Wheat plant response rating: 0
wheat; [4]
  Wheat plant response rating: 0
wheat; Preemergence, Rate 250 g/ha
  Wheat plant response rating (0 to 10 scale): 2
wheat; [5]
  Wheat plant response rating: 3
wheat; [6]
  Plant response rating, Wheat: 0
Wild oat; [1]
  Wild oats plant response rating: 0
Wild oat; [7]
  Plant response rating, Wild oats: 2
Wild oat; [3]
  Wild oats plant response rating: 0
Wild oat; [4]
  Wild oats plant response rating: 0
Wild oat; Preemergence, Rate 250 g/ha
  Wild oats plant response rating (0 to 10 scale): 0
Wild oat; [5]
  Wild oats plant response rating: 7
Wild oat; [6]
  Plant response rating, Wild oats: 0
Purple nutsedge; [1]
  Nutsedge plant response rating: 0
Purple nutsedge; [2]
  Nutsedge plant response rating: 0
Purple nutsedge; [7]
  Plant response rating, Nutsedge: 0
Purple nutsedge; [3]
  Nutsedge plant response rating: 0
Purple nutsedge; [4]
  Nutsedge plant response rating: 0
Purple nutsedge; Preemergence, Rate 250 g/ha
  Nutsedge plant response rating (0 to 10 scale): 0
Purple nutsedge; [5]
  Nutsedge plant response rating: 0
Purple nutsedge; [6]
  Plant response rating, Nutsedge: 0
